Test results published in patent publication US20230085307A1, “PYRIDAZINONE COMPOUND AND HERBICIDE” (NISSAN CHEMICAL CORPORATION, priority 2019, published 2023).

Key:
[1] = test system: Japanese bulrush; test: Test Example 1: herbicidal activity, application before weed generation under submerged conditions (Table 16, symbol B); format: in vivo, Japanese bulrush (Schoenoplectus juncoides); details: 320 g/ha applied herbicide
How it was run: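 Alluvial soil was flooded to 4 cm depth, weed seeds were sown mixed and 2.5-leaf rice seedlings were transplanted. On sowing day, the compound's emulsion, diluted in water to a set dose, was applied to the water surface. Plants grew at 25–30 °C and were scored 0–5 after three weeks.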

[2] = test system: late watergrass; test: Test Example 2: herbicidal activity, application during weed generation under submerged conditions (Table 17, symbol A); format: in vivo, late watergrass (Echinochloa oryzicola); details: AAH 320 g/ha; application during weed generation, submerged conditions
How it was run: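 3-wk visual-criteria score after one water-surface dose. Emulsion formulation, water-diluted to set rate; applied at 1–2 leaf stage; alluvial soil, 4 cm standing water; seeds co-sown; greenhouse 25–30° C.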

[3] = test system: barnyard grass; test: Test Example 3: herbicidal effect by foliage application, Wagner pot (Table 18, symbol H); format: in vivo, barnyard grass (Echinochloa crus-galli); details: for herbicidal effect on H (barnyard grass), rating 0-5: 320 g/ha; for herbicidal effect on H: barnyard grass: amount of applied herbicide 320 g/ha
How it was run: (§1)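 Plants were sown in alluvial soil held under 0.1–0.5 cm standing water and grown 14 days in a greenhouse at 25–30 °C. An emulsifiable formulation, water-diluted to the set dose, was then sprayed onto the foliage, and effects were scored three weeks later using previously defined criteria.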

[4] = test system: Chinese sprangletop; test: Test Example 3: herbicidal effect by foliage application, Wagner pot (Table 18, symbol D); format: in vivo, chinese sprangletop (Leptochloa chinensis); details: for herbicidal effect on D (Chinese sprangletop), rating 0-5: 320 g/ha; for herbicidal effect on D: Chinese sprangletop: amount of applied herbicide 320 g/ha
How it was run: as §1

[5] = test system: southern crabgrass; test: Test Example 4: herbicidal effect by soil treatment (Table 19, symbol F); format: in vivo, southern crabgrass (Digitaria ciliaris); details: amount of applied herbicide 320 g/ha
How it was run: (§2)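 Scoring uses the grading scale of an earlier test, three weeks post-application. Treatment consists of spraying a diluted emulsion formulation across the surface of sterilized diluvial soil in which seeds are buried near 1.5 cm deep; boxes are kept in a greenhouse between 25° C. and 30° C.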

[6] = test system: green foxtail; test: Test Example 4: herbicidal effect by soil treatment (Table 19, symbol G); format: in vivo, green foxtail (Setaria viridis); details: amount of applied herbicide 320 g/ha
How it was run: as §2

[7] = test system: barnyard grass; test: Test Example 4: herbicidal effect by soil treatment (Table 19, symbol H); format: in vivo, barnyard grass (Echinochloa crus-galli); details: amount of applied herbicide 320 g/ha
How it was run: as §2

[8] = test system: blackgrass; test: Test Example 4: herbicidal effect by soil treatment (Table 19, symbol J); format: in vivo, blackgrass (Alopecurus myosuroides); details: amount of applied herbicide 320 g/ha
How it was run: as §2

[9] = test system: velvetleaf; test: Test Example 4: herbicidal effect by soil treatment (Table 19, symbol M); format: in vivo, velvetleaf (Abutilon theophrasti); details: amount of applied herbicide 320 g/ha
How it was run: as §2

[10] = test system: redroot pigweed; test: Test Example 4: herbicidal effect by soil treatment (Table 19, symbol N); format: in vivo, redroot pigweed (Amaranthus retroflexus); details: amount of applied herbicide 320 g/ha
How it was run: as §2

[11] = test system: lambsquarters; test: Test Example 4: herbicidal effect by soil treatment (Table 19, symbol O); format: in vivo, lambsquarters (Chenopodium album); details: amount of applied herbicide 320 g/ha
How it was run: as §2

[12] = test system: chickweed; test: Test Example 4: herbicidal effect by soil treatment (Table 19, symbol P); format: in vivo, common chickweed (Stellaria media); details: amount of applied herbicide 320 g/ha
How it was run: as §2

[13] = test system: wild oat; test: Test Example 5: herbicidal effect by foliage application, plastic box (Table 20, symbol I); format: in vivo, wild oat (Avena fatua); details: foliage application, 320 g/ha, evaluated three weeks after application
How it was run: (§3)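 Post-emergence foliar test in sterilized diluvial soil. Compound applied as water-diluted emulsion at a predetermined rate to 14-day-old plants; evaluation at three weeks.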

[14] = test system: blackgrass; test: Test Example 5: herbicidal effect by foliage application, plastic box (Table 20, symbol J); format: in vivo, blackgrass (Alopecurus myosuroides); details: foliage application, 320 g/ha, evaluated three weeks after application
How it was run: as §3

[15] = test system: Italian ryegrass; test: Test Example 5: herbicidal effect by foliage application, plastic box (Table 20, symbol K); format: in vivo, Italian ryegrass (Lolium multiflorum); details: foliage application, 320 g/ha, evaluated three weeks after application
How it was run: as §3

[16] = test system: windgrass; test: Test Example 5: herbicidal effect by foliage application, plastic box (Table 20, symbol L); format: in vivo, windgrass (Apera spica-venti); details: foliage application, 320 g/ha, evaluated three weeks after application
How it was run: as §3

[17] = test system: lambsquarters; test: Test Example 5: herbicidal effect by foliage application, plastic box (Table 20, symbol O); format: in vivo, lambsquarters (Chenopodium album); details: foliage application, 320 g/ha, evaluated three weeks after application
How it was run: as §3

Compound | Herbicidal effect on B: Japanese bulrush (grade 0-5) [1] | herbicidal effect rating, A: late watergrass [2] | herbicidal effect on H (barnyard grass), rating 0-5 [3] | herbicidal effect on D (Chinese sprangletop), rating 0-5 [4] | F: southern crabgrass, herbicidal effect rating [5] | G: green foxtail, herbicidal effect rating [6] | H: barnyard grass, herbicidal effect rating [7] | J: blackgrass, herbicidal effect rating [8] | M: velvetleaf, herbicidal effect rating [9] | N: redroot pigweed, herbicidal effect rating [10] | O: lambsquarters, herbicidal effect rating [11] | P: chickweed, herbicidal effect rating [12] | herbicidal effect on I: wild oat [13] | herbicidal effect on J: blackgrass [14] | herbicidal effect on K: Italian ryegrass [15] | herbicidal effect on L: windgrass [16] | herbicidal effect on O: lambsquarters [17] | herbicidal effect on H: barnyard grass [3] | herbicidal effect on D: Chinese sprangletop [4] | herbicidal effect on I: wild oat (criteria 0-5) [13] | also measured
CCCC(=O)Oc1c(C)nn(C)c(=O)c1-c1c(-c2ccc(Cl)cc2)sc2ccc(Cl)cc12 [2-100] | 3 (Herbicidal rate of 40% or more and less than 70%) | 3 (Herbicidal rate of 40% or more and less than 70%) | 5 (Herbicidal rate of 90% or more (almost completely withered)) | 4 (Herbicidal rate of 70% or more and less than 90%) | 0 (Herbicidal rate of 5% or less (almost no effect)) | 0 (Herbicidal rate of 5% or less (almost no effect)) | 0 (Herbicidal rate of 5% or less (almost no effect)) | 0 (Herbicidal rate of 5% or less (almost no effect)) | 0 (Herbicidal rate of 5% or less (almost no effect)) | 4 (Herbicidal rate of 70% or more and less than 90%) | 2 (Herbicidal rate of 20% or more and less than 40%) | 1 (Herbicidal rate of 5% or more and less than 20%) | 5 (Herbicidal rate of 90% or more (almost completely withered)) | 4 (Herbicidal rate of 70% or more and less than 90%) | 5 (Herbicidal rate of 90% or more (almost completely withered)) | 5 (Herbicidal rate of 90% or more (almost completely withered)) | 4 (Herbicidal rate of 70% or more and less than 90%) |  |  |  | 
COc1ccccc1-c1sc2ccc(Cl)cc2c1-c1c(O)c(C)nn(C)c1=O [2-101] | 3 (Herbicidal rate of 40% or more and less than 70%) | 0 (Herbicidal rate of 5% or less (almost no effect)) | 4 (Herbicidal rate of 70% or more and less than 90%) | 0 (Herbicidal rate of 5% or less (almost no effect)) | 3 (Herbicidal rate of 40% or more and less than 70%) | 2 (Herbicidal rate of 20% or more and less than 40%) | 3 (Herbicidal rate of 40% or more and less than 70%) | 1 (Herbicidal rate of 5% or more and less than 20%) | 3 (Herbicidal rate of 40% or more and less than 70%) | 5 (Herbicidal rate of 90% or more (almost completely withered)) | 4 (Herbicidal rate of 70% or more and less than 90%) | 5 (Herbicidal rate of 90% or more (almost completely withered)) | 3 (Herbicidal rate of 40% or more and less than 70%) | 5 (Herbicidal rate of 90% or more (almost completely withered)) | 4 (Herbicidal rate of 70% or more and less than 90%) | 4 (Herbicidal rate of 70% or more and less than 90%) | 5 (Herbicidal rate of 90% or more (almost completely withered)) |  |  |  | 
Cc1nn(C)c(=O)c(-c2c(-c3ccc(C#N)cc3)sc3ccc(Cl)cc23)c1O [2-112] | 2 (Herbicidal rate of 20% or more and less than 40%) | 3 (Herbicidal rate of 40% or more and less than 70%) |  |  | 3 (Herbicidal rate of 40% or more and less than 70%) | 0 (Herbicidal rate of 5% or less (almost no effect)) | 0 (Herbicidal rate of 5% or less (almost no effect)) | 3 (Herbicidal rate of 40% or more and less than 70%) | 4 (Herbicidal rate of 70% or more and less than 90%) | 5 (Herbicidal rate of 90% or more (almost completely withered)) | 5 (Herbicidal rate of 90% or more (almost completely withered)) | 5 (Herbicidal rate of 90% or more (almost completely withered)) | 5 (Herbicidal rate of 90% or more (almost completely withered)) | 5 (Herbicidal rate of 90% or more (almost completely withered)) | 5 (Herbicidal rate of 90% or more (almost completely withered)) | 5 (Herbicidal rate of 90% or more (almost completely withered)) | 4 (Herbicidal rate of 70% or more and less than 90%) | 5 (Herbicidal rate of 90% or more (almost completely withered)) | 4 (Herbicidal rate of 70% or more and less than 90%) |  | 
CCCC(=O)Oc1c(C)nn(C)c(=O)c1-c1c(-c2cccc(F)c2)sc2ccc(F)cc12 [2-202] | 0 (Herbicidal rate of 5% or less (almost no effect)) | 4 (Herbicidal rate of 70% or more and less than 90%) |  |  | 2 (Herbicidal rate of 20% or more and less than 40%) | 3 (Herbicidal rate of 40% or more and less than 70%) | 4 (Herbicidal rate of 70% or more and less than 90%) | 0 (Herbicidal rate of 5% or less (almost no effect)) | 0 (Herbicidal rate of 5% or less (almost no effect)) | 5 (Herbicidal rate of 90% or more (almost completely withered)) | 5 (Herbicidal rate of 90% or more (almost completely withered)) | 4 (Herbicidal rate of 70% or more and less than 90%) |  |  |  |  |  | 5 (Herbicidal rate of 90% or more (almost completely withered)) | 5 (Herbicidal rate of 90% or more (almost completely withered)) | 1 (Herbicidal rate of 5% or more and less than 20%) | herbicidal effect on J: blackgrass (criteria 0-5) [14]: 1 (Herbicidal rate of 5% or more and less than 20%); herbicidal effect on K: Italian ryegrass (criteria 0-5) [15]: 3 (Herbicidal rate of 40% or more and less than 70%); herbicidal effect on L: windgrass (criteria 0-5) [16]: 2 (Herbicidal rate of 20% or more and less than 40%); herbicidal effect on O: lambsquarters (criteria 0-5) [17]: 4 (Herbicidal rate of 70% or more and less than 90%)
Cc1nn(C)c(=O)c(-c2c(-c3ccc(OC4CC4)cc3)sc3ccc(F)cc23)c1O [2-217] | 5 (Herbicidal rate of 90% or more (almost completely withered)) | 3 (Herbicidal rate of 40% or more and less than 70%) |  |  | 4 (Herbicidal rate of 70% or more and less than 90%) | 1 (Herbicidal rate of 5% or more and less than 20%) | 5 (Herbicidal rate of 90% or more (almost completely withered)) | 0 (Herbicidal rate of 5% or less (almost no effect)) | 1 (Herbicidal rate of 5% or more and less than 20%) | 4 (Herbicidal rate of 70% or more and less than 90%) | 4 (Herbicidal rate of 70% or more and less than 90%) | 4 (Herbicidal rate of 70% or more and less than 90%) |  |  |  |  |  | 5 (Herbicidal rate of 90% or more (almost completely withered)) | 5 (Herbicidal rate of 90% or more (almost completely withered)) | 4 (Herbicidal rate of 70% or more and less than 90%) | herbicidal effect on J: blackgrass (criteria 0-5) [14]: 1 (Herbicidal rate of 5% or more and less than 20%); herbicidal effect on K: Italian ryegrass (criteria 0-5) [15]: 5 (Herbicidal rate of 90% or more (almost completely withered)); herbicidal effect on L: windgrass (criteria 0-5) [16]: 5 (Herbicidal rate of 90% or more (almost completely withered)); herbicidal effect on O: lambsquarters (criteria 0-5) [17]: 4 (Herbicidal rate of 70% or more and less than 90%)
